Series [1] deals with MERS-CoV. As to the kind of experiment: microbe, parasite or virus in culture. It counts as cell-based. Conditions: for IC50: read-out: IC50, inhibition of MERS-CoV infection.
The subject of series [2] is MERS-CoV, SARS-CoV, and SARS-CoV-2. Nature of the series: organism not typed. The series is classed as cell-based.
The subject of a further series is SARS-CoV. As to the kind of experiment: microbe, parasite or virus in culture. It counts as cell-based. Conditions: read-out: IC50, inhibition of SARS-CoV infection.
Series [3] is described as follows: Five-day repeated dose toxicity study. Conditions: mice; for Death / Time of 100% death after administration: intraperitoneal 10 mg/kg/day.
The test system of another series is SARS-CoV-2. Nature of the series: microbe, parasite or virus in culture. It counts as cell-based. The settings on record: read-out: IC50, inhibition of SARS-CoV-2 infection.
The test system of series [4] is MERS-CoV. Nature of the series: microbe, parasite or virus in culture. It counts as cell-based. The settings on record: for IC50: read-out: IC50, MERS-CoV virus-induced cytopathic effect.
The next series in a line: in vitro. The settings on record: human.
Series [5] is described as follows: Plasma protein binding, text summary over mouse and rat. The settings on record: in mouse and rat.
The nature of series [6]: Plasma protein binding, mice (rapid equilibrium dialysis). Conditions: mouse.
A short description of series [7]: Liver microsomal metabolic stability, human. The settings on record: 1 μM compound, liver microsomes, 30 min. For orientation: Liver microsomes are vesicles of endoplasmic reticulum, rich in cytochrome P450 enzymes.
Series [8] is described as follows: Liver microsomal metabolic stability, rat. The settings on record: 1 μM compound, liver microsomes, 30 min.
Series [9] can be described thus: Plasma protein binding, rat (rapid equilibrium dialysis). For orientation: Equilibrium dialysis compares concentrations on both sides of a semipermeable membrane.
Series [10] in a line: Liver microsomal stability, text summary over mouse, rat and human. Conditions: rat, human, liver microsomes.
A short description of series [11]: Rat pharmacokinetic study.
A short description of series [12]: Liver microsomal metabolic stability, mice. Conditions: 1 μM compound, liver microsomes, 30 min.
The test system of the next series is CYP450 isozymes. As to the kind of experiment: CYP450 inhibition, text summary over isozymes.
Setting [13] is: Middle East respiratory syndrome-related coronavirus, Vero, 24 h.
The mark [14] stands for this setting: read-out: IC50, anti-coronavirus activity (range over both compounds and the viruses).
Setting [15] is: Severe acute respiratory syndrome coronavirus, Vero.
The mark [16] stands for this setting: intraperitoneal 10 mg/kg/day for 5 days.
[17] abbreviates: Severe acute respiratory syndrome coronavirus 2, Vero.
[18] abbreviates: Middle East respiratory syndrome-related coronavirus, Calu-3, 72 h.
Setting [19] is: intraperitoneal 2 mg/kg/day, data not shown.
The mark [20] stands for this setting: male, Sprague-Dawley, plasma, iv, 1 mg/kg.
Where [21] appears, read: male, Sprague-Dawley, plasma, po, 2 mg/kg.

Read-outs that look alike come from different tables or passages of the source.

The IC50 is the midpoint of a concentration-inhibition curve. What is called fraction unbound is the share of the substance not bound to proteins or other matrix. Higher therefore signals weak binding. A word on the fraction remaining: it is the share of the starting amount still present when the sample was taken. One may read the AUC as the area under the concentration-time curve, a measure of exposure. Lower therefore signals less exposure. By Vd is commonly meant a proportionality between amount in the body and measured concentration, not a real space. Low readings indicate confinement near the circulation, high ones extensive tissue distribution. As usually defined, the clearance is a measure of how efficiently the substance is removed, as volume per time. A higher clearance goes with a high capacity for elimination. What is called half-life is the time needed for the level to fall by half in the phase considered. A higher half-life goes with slow loss. As usually defined, the Cmax is the maximum level reached in the sampled fluid or tissue. The term Tmax denotes the time from dosing to the highest level. One may read the bioavailability as the share of a dose that reaches the circulation, judged against a reference dose that is usually intravenous. Higher therefore signals much systemic uptake. Usually inhibition stands for the change of the read-out against control, counted positive when it falls. Read a high inhibition as strong suppression.

Consider `CC(=O)O[C@H]1[C@H]2O[C@]23[C@@H]2CC[C@]4(O)C[C@@H](O)CC[C@]4(C)[C@H]2CC[C@]3(C)[C@H]1c1ccc(=O)oc1` [cinobufotalin], for which the IC50 was 230 nM with MERS-CoV [1] (setting [13]); 231 ± 14 nM in the series on MERS-CoV [1]; 231 to 1610 nM in series [2] (setting [14]); 429 nM with SARS-CoV (setting [15]); 429 ± 17 nM in the series on SARS-CoV; 399 nM in the series with SARS-CoV-2 (setting [17]). Further, the IC50 with SARS-CoV-2 came out at 399 ± 8 nM; in the series on MERS-CoV [4] (setting [18]), 3960 nM. In series [3] (setting [16]), the Survival was found to be 100%. Moreover, the “Selectivity index (SI)” value with MERS-CoV [4] is listed as greater than 12.6. The CC50 in “in vitro” is greater than 50000 nM.

Consider `C[C@H]1O[C@@H](O[C@H]2[C@@H](O)C[C@H](O[C@H]3[C@@H](O)C[C@H](O[C@H]4CC[C@@]5(C)[C@H](CC[C@@H]6[C@@H]5CC[C@]5(C)[C@@H](C7=CC(=O)OC7)CC[C@]65O)C4)O[C@@H]3C)O[C@@H]2C)C[C@H](O)[C@@H]1O` [digitoxin, Digitoxin], for which the “Selectivity index (SI, CC50/IC50)” value in the series on MERS-CoV [1] was greater than 147.9. The IC50 in the series on MERS-CoV [1] (setting [13]) was 67 nM; in the series on SARS-CoV (setting [15]), 62.1 nM; with SARS-CoV, 62 ± 1 nM; in the series with SARS-CoV-2 (setting [17]) it was 59.9 nM; in the series with SARS-CoV-2, 59 ± 1 nM; in the series on MERS-CoV [4] (setting [18]) it was 1500 nM. In series [3] (setting [19]), this compound had a Survival of 100%. Also, in series [3], the Death was 100%. For the same compound, the “Time of 100% death after administration” value in series [3] is on record as 4 days. In the series with MERS-CoV [4], the “Selectivity index (SI)” value is given as greater than 33.4. The compound further yielded a CC50 in “in vitro” greater than 50000 nM.

As for `C[C@]12CC[C@H](O)C[C@H]1CC[C@@H]1[C@@H]2CC[C@]2(C)[C@@H](c3ccc(=O)oc3)CC[C@]12O` [bufalin], the IC50 was 18 nM in the series with MERS-CoV [1] (setting [13]); 16 to 19 nM in [2] (read-out: IC50, anti-SARS-CoV and SARS-CoV-2 activity (range over both viruses)); 16 nM in the series with SARS-CoV (setting [15]); 19 nM in the series with SARS-CoV-2 (setting [17]); 544 nM with MERS-CoV [4] (setting [18]); 544 nM with MERS-CoV [4]. For the same compound, in series [3] (setting [19]), the Survival was 100%. In series [3], this compound gave a Death of 100%. The “Time of 100% death after administration” value in [3] amounted to 1 days. The “Selectivity index (SI)” value in the series on MERS-CoV [4] was greater than 91.9. Also, the CC50 in “in vitro” is greater than 50000 nM.

On to `C[C@]12CC[C@H](O)C[C@H]1CC[C@@H]1[C@@H]2CC[C@]2(C)[C@@H](c3ccc(=O)oc3)C[C@H]3O[C@]132` [resibufogenin], for which the IC50 is 1610 nM in the series with MERS-CoV [1] (setting [13]); 231 to 1610 nM in [2] (setting [14]); 1360 ± 59 nM in the series with SARS-CoV (setting [15]); 1610 ± 63 nM in the series on SARS-CoV-2 (setting [17]); 16000 nM with MERS-CoV [4] (setting [18]). Besides, in the series with MERS-CoV [4], the “Selectivity index (SI)” value was greater than 3.1. Besides, in “in vitro”, the CC50 was greater than 50000 nM.

For `C[C@]12CC[C@H](O)C[C@@]1(O)CC[C@@H]1[C@@H]2CC[C@]2(C)[C@@H](c3ccc(=O)oc3)CC[C@]12O` [telocinobufagin], the PPB rate in [5] is 96–97%. The values for the fraction unbound at 4 h, 5 μM in [6] and in [9] were 0.022 and 0.032, respectively. Also, the IC50 with MERS-CoV [1] (setting [13]) amounted to 27 nM; in the series with SARS-CoV (setting [15]), 71.2 nM; with SARS-CoV, 71 ± 2 nM; with SARS-CoV-2 (setting [17]), 142 nM; in the series with SARS-CoV-2, 142 ± 2 nM; with MERS-CoV [4] (setting [18]), 464 nM. Further, the IC50 in the series with MERS-CoV [4] worked out at 465 nM. Moreover, the “MS (% of Remaining), Human” value in [7] amounted to 15.1%. In series [8], the “MS (% of Remaining), Rat” value came to 31.9%. Further, in series [10], the fraction remaining at 0.5 h, 1 μM was in the range of 15 to 30%. Also, the “Ft (oral bioavailability)” value in series [11] (P.O., 2 mg/kg) came out at 33.2%. For the same compound, the figures for the area under the curve (AUC) in series [11] (setting [20]) and in series [11] (setting [21]) were 604 ± 159 ng·h/mL and 488 ± 204 ng·h/mL, respectively. Further, in series [11] (setting [20]), the Vd is 0.275 ± 0.169 L/kg. In addition, the clearance in series [11] (setting [20]) was 28.8 mL/min/kg. For the same compound, the figures for the half-life in series [11] (setting [20]) and in series [11] (setting [21]) were 13.5 ± 1.2 min and 30.6 ± 24.4 min, respectively. In series [11] (setting [21]), this compound had a Cmax of 537 ± 227 ng/mL. Also, in [11] (setting [21]), the Tmax was 20 ± 8.64 min. Also, the bioavailability in series [11] (male, Sprague-Dawley, plasma, po, 2 mg/kg, Ft (oral bioavailability), P.O.) is 33%. Further, the “MS (% of Remaining), Mice” value in series [12] was determined as 21.7%. The Survival in series [3] (setting [16]) came out at 100%. The same compound gave a CC50 in the series “in vitro” greater than 50000 nM. The compound also showed an inhibition at 10 µM in the series on CYP450 isozymes of 1.4 to 21%.

`CC(=O)O[C@H]1C[C@]2(O)[C@@H]3CC[C@@H]4C[C@@H](O)CC[C@]4(C)[C@H]3CC[C@]2(C)[C@H]1c1ccc(=O)oc1` [bufotalin]: the IC50 turned out to be 63 nM in the series on MERS-CoV [1] (setting [13]); 27 nM in the series on SARS-CoV (setting [15]); 72.9 nM in the series with SARS-CoV-2 (setting [17]); 72 ± 1 nM in the series on SARS-CoV-2; 1630 nM in the series on MERS-CoV [4] (setting [18]). This compound displayed a Survival in series [3] (setting [16]) of 100%. The “Selectivity index (SI)” value in the series on MERS-CoV [4] was greater than 30.7. Further, in the series “in vitro”, the CC50 is greater than 50000 nM.

As for `CC(=O)O[C@H]1[C@H]2O[C@]23[C@@H]2CC[C@@H]4C[C@@H](O)CC[C@]4(C)[C@H]2CC[C@]3(C)[C@H]1c1ccc(=O)oc1` [cinobufagin], the fraction unbound at 4 h, 5 μM in [5] (mouse, rat, plasma, PPB rate) was 0.1 to 0.22; in [6] it was 0.092; in series [9], 0.218. Besides, the concentration for half-maximal inhibition (IC50) with MERS-CoV [1] (setting [13]) was found to be 17 nM; in the series with SARS-CoV (setting [15]), 60.9 nM; in the series with SARS-CoV, 60 ± 2 nM; in the series with SARS-CoV-2 (setting [17]), 72.2 nM; in the series with SARS-CoV-2, 72 ± 1 nM; with MERS-CoV [4] (setting [18]) it was 616 nM. Besides, the concentration for half-maximal inhibition (IC50) in the series with MERS-CoV [4] was found to be 616 nM. The “MS (% of Remaining), Human” value in series [7] stood at 2.99%. In addition, the “MS (% of Remaining), Rat” value in series [8] is recorded as 4.40%. The same compound yielded a fraction remaining at 0.5 h, 1 μM in series [10] of less than 5%. Also, the “Time within which all rats (n = 3) died” value in series [11] (1 mg/kg IV injection, data not shown) was no more than 10 min. Further, in [11] (30 min after PO injection, 2 mg/kg, data not shown), the “Detection in plasma after PO injection” value is “not detected”. Besides, the “MS (% of Remaining), Mice” value in [12] is on record as 0.18%. Further, the Survival in series [3] (setting [19]) was 100%. For the same compound, in series [3], the Death was 100%. Besides, the “Time of 100% death after administration” value in series [3] came to 2 days. In the series “in vitro”, this compound yielded a CC50 greater than 50000 nM. This compound also had an inhibition at 10 µM in the series on CYP450 isozymes of 4 to 46%.
